Experimental data from ChEMBL document CHEMBL1201862, “PubChem BioAssay data set” (2004).
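1) Cells in 96-well plates. 2) Compound, 48 h, 5 concentrations. 3) Linear interpolation between surrounding doses. 4) Unreached endpoint = highest concentration. GI50 = concentration required for 50% inhibition of growth.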 Calls of active or inactive are those of the source. No stated cut-off is given here; in the data, active = GI50 up to about 1.1 µM and inactive = higher.

Columns and labels:
Assay in all cases: NCI-60 cell line screen, 48 h
KM12 = test system: KM12
OVCAR-5 = test system: OVCAR-5
HT-29 = test system: HT-29
UO-31 = test system: UO-31
HOP-92 = test system: HOP-92
CCRF-CEM = test system: CCRF-CEM
UACC-257 = test system: UACC-257
Malme-3M = test system: Malme-3M
IGROV-1 = test system: IGROV-1
DU-145 = test system: DU-145
NCI-H226 = test system: NCI-H226
NCI-H522 = test system: NCI-H522
UACC-62 = test system: UACC-62
M14 = test system: M14
SF-268 = test system: SF-268
EKVX = test system: EKVX
RPMI-8226 = test system: RPMI-8226
MDA-MB-435 = test system: MDA-MB-435
SF-295 = test system: SF-295
OVCAR-8 = test system: OVCAR-8
HL-60 = test system: HL-60
OVCAR-4 = test system: OVCAR-4
786-0 = test system: 786-0
LOX IMVI = test system: LOX IMVI
CAKI-1 = test system: CAKI-1
NCI-H460 = test system: NCI-H460
HCC 2998 = test system: HCC 2998
SNB-75 = test system: SNB-75
U-251 = test system: U-251
T47D = test system: T47D
SNB-19 = test system: SNB-19
SK-MEL-28 = test system: SK-MEL-28
SF-539 = test system: SF-539
TK-10 = test system: TK-10
SR = test system: SR
HCT-116 = test system: HCT-116
A549 = test system: A549
BT-549 = test system: BT-549
ACHN = test system: ACHN
SK-MEL-5 = test system: SK-MEL-5
NCI/ADR-RES = test system: NCI/ADR-RES
OVCAR-3 = test system: OVCAR-3
PC-3 = test system: PC-3
MOLT-4 = test system: MOLT-4
MDA-MB-231 = test system: MDA-MB-231
SK-MEL-2 = test system: SK-MEL-2
MCF7 = test system: MCF7
Hs-578T = test system: Hs-578T
SN12C = test system: SN12C
COLO 205 = test system: COLO 205
NCI-H23 = test system: NCI-H23
SK-OV-3 = test system: SK-OV-3
HCT-15 = test system: HCT-15
MDA-N = test system: MDA-N
SW-620 = test system: SW-620
HOP-62 = test system: HOP-62
K562 = test system: K562
RXF 393 = test system: RXF 393
A498 = test system: A498

For `CN(C)c1ccc(C2SCC(=O)N2c2ccc(Oc3ccc(Cl)cc3)c(Cl)c2)cc1` (configuration not stated), the GI50 (KM12) was 20.3 µM (inactive), the GI50 (OVCAR-5) was 26.4 µM (inactive) and the GI50 (HT-29) was 20.2 µM (inactive). The GI50 (UO-31) was 11.6 µM (inactive), the GI50 (HOP-92) was 21.8 µM (inactive) and the GI50 (CCRF-CEM) was 18.5 µM (inactive). For the same molecule, the GI50 (UACC-257) was 36.6 µM (inactive), the GI50 (Malme-3M) was 15.1 µM (inactive) and the GI50 (IGROV-1) was 22.6 µM (inactive). For the same molecule, the GI50 (DU-145) was 16.7 µM (inactive), the GI50 (NCI-H226) was 30.4 µM (inactive) and the GI50 (NCI-H522) was 18.3 µM (inactive). The GI50 (UACC-62) was 19 µM (inactive), the GI50 (M14) was 28.8 µM (inactive) and the GI50 (SF-268) was 13.8 µM (inactive). For the same molecule, the GI50 (EKVX) was 22.8 µM (inactive), the GI50 (RPMI-8226) was 15.2 µM (inactive) and the GI50 (MDA-MB-435) was 22.7 µM (inactive). For the same molecule, the GI50 (SF-295) was > 10 µM (inactive), the GI50 (OVCAR-8) was 28.2 µM (inactive) and the GI50 (HL-60) was 20.3 µM (inactive). The GI50 (OVCAR-4) was 22.9 µM (inactive), the GI50 (786-0) was 17.7 µM (inactive) and the GI50 (LOX IMVI) was 18.7 µM (inactive). The GI50 (CAKI-1) was 32.4 µM (inactive), the GI50 (NCI-H460) was 22.5 µM (inactive) and the GI50 (HCC 2998) was 22.3 µM (inactive). For the same molecule, the GI50 (SNB-75) was 17.6 µM (inactive), the GI50 (U-251) was 20.5 µM (inactive) and the GI50 (T47D) was 15.3 µM (inactive). The GI50 (SNB-19) was 20.3 µM (inactive), the GI50 (SK-MEL-28) was 35 µM (inactive) and the GI50 (SF-539) was 18.1 µM (inactive). For the same molecule, the GI50 (TK-10) was 48.4 µM (inactive), the GI50 (SR) was 27.5 µM (inactive) and the GI50 (HCT-116) was 16.7 µM (inactive). For the same molecule, the GI50 (A549) was 22.7 µM (inactive), the GI50 (BT-549) was 17 µM (inactive) and the GI50 (ACHN) was 29.7 µM (inactive). The GI50 (SK-MEL-5) was 19.1 µM (inactive), the GI50 (NCI/ADR-RES) was 22.3 µM (inactive) and the GI50 (OVCAR-3) was 23.3 µM (inactive). The GI50 (PC-3) was 19.9 µM (inactive), the GI50 (MOLT-4) was 27.8 µM (inactive) and the GI50 (MDA-MB-231) was 20.4 µM (inactive). The GI50 (SK-MEL-2) was 20.4 µM (inactive), the GI50 (MCF7) was 37.2 µM (inactive) and the GI50 (Hs-578T) was 14.4 µM (inactive). For the same molecule, the GI50 (SN12C) was 23.3 µM (inactive), the GI50 (COLO 205) was 20.6 µM (inactive) and the GI50 (NCI-H23) was 18.5 µM (inactive). For the same molecule, the GI50 (SK-OV-3) was 29 µM (inactive), the GI50 (HCT-15) was 24.2 µM and the GI50 (MDA-N) was 28.6 µM (inactive). The GI50 (SW-620) was 29.4 µM (inactive) and the GI50 (HOP-62) was 20.5 µM (inactive).
`O=c1oc2ccccc2cc1-c1cn2c(n1)sc1ccccc12` was tested, and the GI50 (KM12) was 93.5 µM (inactive), the GI50 (HT-29) was 1.15 µM (inactive) and the GI50 (UO-31) was > 100 µM (inactive). The GI50 (HOP-92) was > 100 µM (inactive), the GI50 (CCRF-CEM) was > 100 µM (inactive) and the GI50 (UACC-257) was > 100 µM (inactive). For the same molecule, the GI50 (IGROV-1) was > 100 µM (inactive), the GI50 (K562) was > 100 µM (inactive) and the GI50 (DU-145) was > 100 µM (inactive). For the same molecule, the GI50 (NCI-H226) was > 100 µM (inactive), the GI50 (NCI-H522) was 26.1 µM (inactive) and the GI50 (UACC-62) was > 100 µM (inactive). For the same molecule, the GI50 (M14) was > 100 µM (inactive), the GI50 (SF-268) was 52.6 µM (inactive) and the GI50 (EKVX) was 2.33 µM (inactive). For the same molecule, the GI50 (RPMI-8226) was > 100 µM (inactive), the GI50 (MDA-MB-435) was 29.3 µM (inactive) and the GI50 (SF-295) was > 100 µM (inactive). For the same molecule, the GI50 (OVCAR-8) was 83.9 µM (inactive), the GI50 (HL-60) was > 100 µM (inactive) and the GI50 (786-0) was > 100 µM (inactive). The GI50 (LOX IMVI) was > 100 µM (inactive), the GI50 (CAKI-1) was > 100 µM (inactive) and the GI50 (NCI-H460) was > 100 µM (inactive). For the same molecule, the GI50 (HCC 2998) was > 100 µM (inactive), the GI50 (SNB-75) was > 100 µM (inactive) and the GI50 (U-251) was 83 µM (inactive). The GI50 (T47D) was > 100 µM (inactive), the GI50 (RXF 393) was > 100 µM (inactive) and the GI50 (SK-MEL-28) was > 100 µM (inactive). The GI50 (SF-539) was > 100 µM (inactive), the GI50 (TK-10) was > 100 µM (inactive) and the GI50 (SR) was > 100 µM (inactive). The GI50 (HCT-116) was 75.5 µM (inactive), the GI50 (A549) was > 100 µM (inactive) and the GI50 (BT-549) was > 100 µM (inactive). The GI50 (ACHN) was > 100 µM (inactive), the GI50 (SK-MEL-5) was > 100 µM (inactive) and the GI50 (NCI/ADR-RES) was > 100 µM (inactive). For the same molecule, the GI50 (OVCAR-3) was > 100 µM (inactive), the GI50 (PC-3) was > 100 µM (inactive) and the GI50 (MOLT-4) was > 100 µM (inactive). The GI50 (MDA-MB-231) was > 100 µM (inactive), the GI50 (SK-MEL-2) was > 100 µM (inactive) and the GI50 (MCF7) was 4.75 µM (inactive). The GI50 (Hs-578T) was > 100 µM (inactive), the GI50 (SN12C) was > 100 µM (inactive) and the GI50 (COLO 205) was > 100 µM (inactive). For the same molecule, the GI50 (NCI-H23) was > 100 µM (inactive), the GI50 (SK-OV-3) was > 100 µM (inactive) and the GI50 (HCT-15) was over 100 µM. For the same molecule, the GI50 (MDA-N) was > 100 µM (inactive), the GI50 (SW-620) was > 100 µM (inactive) and the GI50 (HOP-62) was > 100 µM (inactive).
For `Cc1cc2nc(C#N)c(N3CCN(c4ccc([N+](=O)[O-])cc4)CC3)nc2cc1C`, the GI50 (KM12) was > 100 µM (inactive), the GI50 (OVCAR-5) was > 100 µM (inactive) and the GI50 (HT-29) was > 88.5 µM (inactive). For the same molecule, the GI50 (UO-31) was > 93.8 µM (inactive), the GI50 (HOP-92) was 50.4 µM (inactive) and the GI50 (CCRF-CEM) was > 100 µM (inactive). For the same molecule, the GI50 (UACC-257) was > 100 µM (inactive), the GI50 (Malme-3M) was > 100 µM (inactive) and the GI50 (IGROV-1) was > 100 µM (inactive). The GI50 (K562) was > 100 µM (inactive), the GI50 (DU-145) was > 100 µM (inactive) and the GI50 (NCI-H226) was > 100 µM (inactive). For the same molecule, the GI50 (NCI-H522) was > 54.1 µM (inactive), the GI50 (UACC-62) was > 79.1 µM (inactive) and the GI50 (M14) was > 95.9 µM (inactive). The GI50 (SF-268) was > 57.7 µM (inactive), the GI50 (EKVX) was > 100 µM (inactive) and the GI50 (RPMI-8226) was > 57.3 µM (inactive). The GI50 (MDA-MB-435) was > 100 µM (inactive), the GI50 (SF-295) was > 50.5 µM (inactive) and the GI50 (OVCAR-8) was > 56.2 µM (inactive). The GI50 (OVCAR-4) was 73.6 µM (inactive), the GI50 (786-0) was 52.7 µM (inactive) and the GI50 (LOX IMVI) was > 100 µM (inactive). The GI50 (CAKI-1) was > 70 µM (inactive), the GI50 (NCI-H460) was > 85.9 µM (inactive) and the GI50 (HCC 2998) was > 100 µM (inactive). The GI50 (SNB-75) was 63.5 µM (inactive), the GI50 (U-251) was > 74.6 µM (inactive) and the GI50 (T47D) was 66.2 µM (inactive). The GI50 (RXF 393) was > 72.9 µM (inactive), the GI50 (SNB-19) was 67 µM (inactive) and the GI50 (SK-MEL-28) was > 100 µM (inactive). The GI50 (SF-539) was 26.1 µM (inactive), the GI50 (TK-10) was > 66.5 µM (inactive) and the GI50 (SR) was > 100 µM (inactive). The GI50 (HCT-116) was > 68.4 µM (inactive), the GI50 (A549) was > 100 µM (inactive) and the GI50 (BT-549) was > 100 µM (inactive). The GI50 (ACHN) was > 71.3 µM (inactive), the GI50 (SK-MEL-5) was > 100 µM (inactive) and the GI50 (NCI/ADR-RES) was > 79.1 µM (inactive). The GI50 (OVCAR-3) was > 100 µM (inactive), the GI50 (PC-3) was > 100 µM (inactive) and the GI50 (MDA-MB-231) was > 100 µM (inactive). The GI50 (SK-MEL-2) was > 100 µM (inactive), the GI50 (MCF7) was > 72.8 µM (inactive) and the GI50 (Hs-578T) was 29.1 µM (inactive). The GI50 (A498) was > 75.2 µM (inactive), the GI50 (SN12C) was > 92.7 µM (inactive) and the GI50 (COLO 205) was > 100 µM (inactive). For the same molecule, the GI50 (NCI-H23) was > 64.9 µM (inactive), the GI50 (SK-OV-3) was > 69.5 µM (inactive) and the GI50 (HCT-15) was over 100 µM. For the same molecule, the GI50 (MDA-N) was > 79.3 µM (inactive), the GI50 (SW-620) was > 100 µM (inactive) and the GI50 (HOP-62) was 40.6 µM (inactive).
